Results as given in ChEMBL document CHEMBL1157261, “Neuroprotective 2-(2-phenylethyl)chromones of Imperata cylindrica” (2006).

Experiment: Neuroprotective activity against glutamate-induced neurotoxicity in Sprague-Dawley rat cortical cells at 10 uM after 24 hrs by MTT assay relative to control
Assay type: functional

Row | Structure (SMILES) | Activity [%]
1 | O=c1cc(CCc2ccccc2)oc2cccc(O)c12 | 67
2 | O=c1cc(CCc2ccccc2O)oc2cccc(O)c12 | 63.6
3 | O=c1cc(/C=C/c2ccccc2)oc2cccc(O)c12 | -11.3
4 | C[C@]12N[C@H](Cc3ccccc31)c1ccccc12.O=C(O)/C=C\C(=O)O [DIZOCILPINE MALEATE] | 82.2
